The text below walks through data of ChEMBL document CHEMBL1697781, “Assessment of the health effects of chemicals in humans: II. Construction of an adverse effects database for QSAR modeling” (Curr Drug Discov Technol, 2004).

Holding throughout (details): human
Data set [1] has as its system Hepatotoxicity. The experiment in a line: FDA HLAED, liver enzyme composite activity.
For data set [2], the system named is Hepatotoxicity. The experiment in a line: FDA HLAED, alkaline phosphatase increase.
The test system of data set [3] is Hepatotoxicity. The data set is described as follows: FDA HLAED, serum glutamic oxaloacetic transaminase (SGOT) increase.
Data set [4] concerns Hepatotoxicity. The data set is described as follows: FDA HLAED, serum glutamic pyruvic transaminase (SGPT) increase.
Data set [5] has as its system Hepatotoxicity. The experiment in a line: FDA HLAED, lactate dehydrogenase (LDH) increase.
Data set [6] relates to Hepatotoxicity. The data set is described as follows: FDA HLAED, gamma-glutamyl transferase (GGT) increase.

Structures are written as SMILES.
Throughout, for GGT Increase - Index Value: reference of the scale not given here.
Throughout, for LDH Increase - Index Value: reference of the scale not given here.

For the compound `CNC(=C[N+](=O)[O-])NCCSCc1ccc(CN(C)C)o1` [RANITIDINE], in the data set with Hepatotoxicity [1], the “Composite Activity - Active” value is reported as 0, the “Composite Activity - Marginal” value was 0 and the “Composite Activity - Score” value is “Inactive”. For the same compound, in the data set with Hepatotoxicity [2], the “Alkaline Phosphatase Increase - Activity Score” value is recorded as “Inactive”, the “Alkaline Phosphatase Increase - Index Value” came to 1.1 and the “Alkaline Phosphatase Increase - Number of Reports” value was “>= 4”. Besides, in the data set with Hepatotoxicity [3], the “SGOT Increase - Activity Score” value is on record as “Inactive”, the “SGOT Increase - Index Value” is recorded as 1.2 and the “SGOT Increase - Number of Reports” value is reported as “>= 4”. In addition, in the data set on Hepatotoxicity [4], the “SGPT Increase - Activity Score” value was “Inactive”, the “SGPT Increase - Index Value” is 1 and the “SGPT Increase - Number of Reports” value is “>= 4”. For the same compound, in the data set with Hepatotoxicity [5], the “LDH Increase - Activity Score” value was “Inactive”, the “LDH Increase - Index Value” is 0.3 and the “LDH Increase - Number of Reports” value was “>= 4”. Further, in the data set with Hepatotoxicity [6], the “GGT Increase - Activity Score” value is on record as “Inactive”, the “GGT Increase - Index Value” was 0 and the “GGT Increase - Number of Reports” value was < 4.

As to `CO[C@H]1/C=C/O[C@@]2(C)Oc3c(C)c(O)c4c(c3C2=O)C2=NC3(CCN(CC(C)C)CC3)NC2=C(NC(=O)/C(C)=C\C=C\[C@H](C)[C@H](O)[C@@H](C)[C@@H](O)[C@@H](C)[C@H](OC(C)=O)[C@@H]1C)C4=O` [RIFABUTIN], in the data set with Hepatotoxicity [1] (Liver), the “Composite Activity - Active” value was 4, the “Composite Activity - Marginal” value stood at 0 and the “Composite Activity - Score” value is “Active”. In the data set with Hepatotoxicity [2], the “Alkaline Phosphatase Increase - Activity Score” value is “Active”, the “Alkaline Phosphatase Increase - Index Value” is 15.9 and the “Alkaline Phosphatase Increase - Number of Reports” value was “>= 4”. In the data set with Hepatotoxicity [3], the “SGOT Increase - Activity Score” value is “Active”, the “SGOT Increase - Index Value” came out at 31.8 and the “SGOT Increase - Number of Reports” value is recorded as “>= 4”. In the data set with Hepatotoxicity [4], the “SGPT Increase - Activity Score” value is given as “Active”, the “SGPT Increase - Index Value” is given as 31.8 and the “SGPT Increase - Number of Reports” value is listed as “>= 4”. In addition, in the data set with Hepatotoxicity [5], the “LDH Increase - Activity Score” value is “Inactive”, the “LDH Increase - Index Value” was found to be 5.3 and the “LDH Increase - Number of Reports” value is < 4. In the data set with Hepatotoxicity [6], the “GGT Increase - Activity Score” value was “Active”, the “GGT Increase - Index Value” was 18.5 and the “GGT Increase - Number of Reports” value is “>= 4”.

For the compound `Nc1nc2ccc(OC(F)(F)F)cc2s1` [RILUZOLE], in the data set on Hepatotoxicity [1], the “Composite Activity - Active” value is 1, the “Composite Activity - Marginal” value was 0 and the “Composite Activity - Score” value is “Inactive”. Also, in the data set on Hepatotoxicity [2], the “Alkaline Phosphatase Increase - Activity Score” value is reported as “Active”, the “Alkaline Phosphatase Increase - Index Value” was 45.2 and the “Alkaline Phosphatase Increase - Number of Reports” value is listed as < 4. In the data set with Hepatotoxicity [3], the “SGOT Increase - Activity Score” value is “Inactive”, the “SGOT Increase - Index Value” is listed as 22.6 and the “SGOT Increase - Number of Reports” value was < 4. Also, in the data set with Hepatotoxicity [4], the “SGPT Increase - Activity Score” value is given as “Inactive”, the “SGPT Increase - Index Value” turned out to be 22.6 and the “SGPT Increase - Number of Reports” value is on record as < 4. Further, in the data set on Hepatotoxicity [5], the “LDH Increase - Activity Score” value is “Inactive”, the “LDH Increase - Index Value” is 22.6 and the “LDH Increase - Number of Reports” value is < 4. In addition, in the data set on Hepatotoxicity [6], the “GGT Increase - Activity Score” value is given as “Inactive”, the “GGT Increase - Index Value” amounted to 22.6 and the “GGT Increase - Number of Reports” value is listed as < 4.

As for `CC(N)C12CC3CC(CC(C3)C1)C2` (configuration not stated) [RIMANTADINE], in the data set with Hepatotoxicity [1], the “Composite Activity - Active” value came to 0, the “Composite Activity - Marginal” value was determined as 0 and the “Composite Activity - Score” value was “Inactive”. Besides, in the data set with Hepatotoxicity [2], the “Alkaline Phosphatase Increase - Activity Score” value was “Inactive”, the “Alkaline Phosphatase Increase - Index Value” turned out to be 1.7 and the “Alkaline Phosphatase Increase - Number of Reports” value is reported as < 4. Besides, in the data set on Hepatotoxicity [3], the “SGOT Increase - Activity Score” value was “Inactive”, the “SGOT Increase - Index Value” was found to be 3.3 and the “SGOT Increase - Number of Reports” value is < 4. Further, in the data set with Hepatotoxicity [4], the “SGPT Increase - Activity Score” value is “Inactive”, the “SGPT Increase - Index Value” is reported as 1.7 and the “SGPT Increase - Number of Reports” value is on record as < 4. Also, in the data set on Hepatotoxicity [5], the “LDH Increase - Activity Score” value was “Inactive”, the “LDH Increase - Index Value” worked out at 0 and the “LDH Increase - Number of Reports” value is given as < 4. Further, in the data set on Hepatotoxicity [6], the “GGT Increase - Activity Score” value is “Inactive”, the “GGT Increase - Index Value” worked out at 0 and the “GGT Increase - Number of Reports” value is < 4.

Consider `CCC(=O)[C@@]1(C)[C@H](C)C[C@H]2[C@@H]3CCC4=CC(=O)C=C[C@]4(C)[C@H]3[C@@H](O)C[C@@]21C` [RIMEXOLONE], for which, in the data set with Hepatotoxicity [1], the “Composite Activity - Active” value is listed as 0, the “Composite Activity - Marginal” value is listed as 0 and the “Composite Activity - Score” value is given as “Inactive”. Moreover, in the data set with Hepatotoxicity [2], the “Alkaline Phosphatase Increase - Activity Score” value is listed as “Inactive”, the “Alkaline Phosphatase Increase - Index Value” is recorded as 0 and the “Alkaline Phosphatase Increase - Number of Reports” value is given as < 4. For the same compound, in the data set on Hepatotoxicity [3], the “SGOT Increase - Activity Score” value is on record as “Inactive”, the “SGOT Increase - Index Value” is recorded as 0 and the “SGOT Increase - Number of Reports” value was < 4. Also, in the data set on Hepatotoxicity [4], the “SGPT Increase - Activity Score” value was “Inactive”, the “SGPT Increase - Index Value” turned out to be 0 and the “SGPT Increase - Number of Reports” value was < 4. Further, in the data set with Hepatotoxicity [5], the “LDH Increase - Activity Score” value is listed as “Inactive”, the “LDH Increase - Index Value” amounted to 0 and the “LDH Increase - Number of Reports” value was < 4. In addition, in the data set on Hepatotoxicity [6], the “GGT Increase - Activity Score” value was “Inactive”, the “GGT Increase - Index Value” was found to be 0 and the “GGT Increase - Number of Reports” value was < 4.

With `Cc1nc2n(c(=O)c1CCN1CCC(c3noc4cc(F)ccc34)CC1)CCCC2` [RISPERIDONE], in the data set on Hepatotoxicity [1], the “Composite Activity - Active” value was 2, the “Composite Activity - Marginal” value is 0 and the “Composite Activity - Score” value is “Active”. Besides, in the data set with Hepatotoxicity [2], the “Alkaline Phosphatase Increase - Activity Score” value was “Inactive”, the “Alkaline Phosphatase Increase - Index Value” stood at 1.6 and the “Alkaline Phosphatase Increase - Number of Reports” value is given as “>= 4”. In the data set with Hepatotoxicity [3], the “SGOT Increase - Activity Score” value is “Active”, the “SGOT Increase - Index Value” was 4.8 and the “SGOT Increase - Number of Reports” value is reported as “>= 4”. Moreover, in the data set with Hepatotoxicity [4], the “SGPT Increase - Activity Score” value was “Active”, the “SGPT Increase - Index Value” was found to be 4.9 and the “SGPT Increase - Number of Reports” value is on record as “>= 4”. Moreover, in the data set on Hepatotoxicity [5], the “LDH Increase - Activity Score” value is on record as “Inactive”, the “LDH Increase - Index Value” is 0.9 and the “LDH Increase - Number of Reports” value is “>= 4”. In the data set with Hepatotoxicity [6], the “GGT Increase - Activity Score” value was “Inactive”, the “GGT Increase - Index Value” worked out at 1.6 and the “GGT Increase - Number of Reports” value was “>= 4”.

As for `CC(NCCc1ccc(O)cc1)C(O)c1ccc(O)cc1` (configuration not stated) [RITODRINE], in the data set on Hepatotoxicity [1], the “Composite Activity - Active” value was 2, the “Composite Activity - Marginal” value turned out to be 0 and the “Composite Activity - Score” value is given as “Active”. In addition, in the data set on Hepatotoxicity [2], the “Alkaline Phosphatase Increase - Activity Score” value is “Inactive”, the “Alkaline Phosphatase Increase - Index Value” amounted to 1.1 and the “Alkaline Phosphatase Increase - Number of Reports” value is < 4. Further, in the data set on Hepatotoxicity [3], the “SGOT Increase - Activity Score” value is listed as “Active”, the “SGOT Increase - Index Value” is reported as 4.2 and the “SGOT Increase - Number of Reports” value was “>= 4”. Further, in the data set on Hepatotoxicity [4], the “SGPT Increase - Activity Score” value is “Active”, the “SGPT Increase - Index Value” was 4.2 and the “SGPT Increase - Number of Reports” value is given as “>= 4”. In addition, in the data set on Hepatotoxicity [5], the “LDH Increase - Activity Score” value is given as “Inactive”, the “LDH Increase - Index Value” is given as 0 and the “LDH Increase - Number of Reports” value is listed as < 4. For the same compound, in the data set on Hepatotoxicity [6], the “GGT Increase - Activity Score” value is on record as “Inactive”, the “GGT Increase - Index Value” was 0 and the “GGT Increase - Number of Reports” value was < 4.

`C=CC[N+]1([C@H]2C[C@H]3[C@@H]4CC[C@H]5C[C@H](O)[C@@H](N6CCOCC6)C[C@]5(C)[C@H]4CC[C@]3(C)[C@H]2OC(C)=O)CCCC1.[Br-]` [ROCURONIUM BROMIDE]: in the data set on Hepatotoxicity [1], the “Composite Activity - Active” value stood at 0, the “Composite Activity - Marginal” value is 0 and the “Composite Activity - Score” value is on record as “Inactive”. In the data set on Hepatotoxicity [2], the “Alkaline Phosphatase Increase - Activity Score” value is reported as “Inactive”, the “Alkaline Phosphatase Increase - Index Value” turned out to be 0 and the “Alkaline Phosphatase Increase - Number of Reports” value is listed as < 4. Further, in the data set with Hepatotoxicity [3], the “SGOT Increase - Activity Score” value is “Inactive”, the “SGOT Increase - Index Value” is on record as 0 and the “SGOT Increase - Number of Reports” value is listed as < 4. Moreover, in the data set on Hepatotoxicity [4], the “SGPT Increase - Activity Score” value is recorded as “Inactive”, the “SGPT Increase - Index Value” was determined as 0 and the “SGPT Increase - Number of Reports” value is recorded as < 4. In the data set with Hepatotoxicity [5], the “LDH Increase - Activity Score” value is recorded as “Inactive”, the “LDH Increase - Index Value” was determined as 0 and the “LDH Increase - Number of Reports” value is reported as < 4. In addition, in the data set on Hepatotoxicity [6], the “GGT Increase - Activity Score” value is on record as “Inactive”, the “GGT Increase - Index Value” came out at 0 and the “GGT Increase - Number of Reports” value is on record as < 4.

With `CCCN1CCCC[C@H]1C(=O)Nc1c(C)cccc1C` [ROPIVACAINE], in the data set on Hepatotoxicity [1], the “Composite Activity - Active” value amounted to 0, the “Composite Activity - Marginal” value was 0 and the “Composite Activity - Score” value is given as “Inactive”. Moreover, in the data set on Hepatotoxicity [2], the “Alkaline Phosphatase Increase - Activity Score” value is on record as “Inactive”, the “Alkaline Phosphatase Increase - Index Value” stood at 0 and the “Alkaline Phosphatase Increase - Number of Reports” value is recorded as < 4. Besides, in the data set with Hepatotoxicity [3], the “SGOT Increase - Activity Score” value was “Inactive”, the “SGOT Increase - Index Value” is on record as 0 and the “SGOT Increase - Number of Reports” value is reported as < 4. Further, in the data set with Hepatotoxicity [4], the “SGPT Increase - Activity Score” value is on record as “Inactive”, the “SGPT Increase - Index Value” is reported as 0 and the “SGPT Increase - Number of Reports” value is on record as < 4. In the data set on Hepatotoxicity [5], the “LDH Increase - Activity Score” value is reported as “Inactive”, the “LDH Increase - Index Value” is 0 and the “LDH Increase - Number of Reports” value is recorded as < 4. For the same compound, in the data set on Hepatotoxicity [6], the “GGT Increase - Activity Score” value is reported as “Inactive”, the “GGT Increase - Index Value” is 0 and the “GGT Increase - Number of Reports” value was < 4.
